Laboratory results reported in US20240391954A1, “MC4R AGONIST PEPTIDES” (The Regents of the University of Michigan, priority 2021, published 2024).
Positions of bridges follow the written chain, without caps; N, C: chain ends. Non-standard residues stand in square brackets, D forms with d. Residues, ends and D or L forms follow the SMILES beside them. Cit = NC(=O)NCCC[C@H](N)C(=O)O; Orn = NCCC[C@H](N)C(=O)O; Aib = CC(C)(N)C(=O)O

Assays:
Type in all cases: cell-based
human MC1R = molecular target: T1, human MC1R (Homo sapiens, UniProt Q01726); assay: split-luciferase cAMP sensor assay, agonist mode, hMC1R; settings: MC4R versus MC1R
T1 construct: expressed in transfected cells; host or cells: HEK-293 cells stably expressing hMC1R and the GScAMP22F cAMP sensor
T1 sequence (Q01726 whole entry): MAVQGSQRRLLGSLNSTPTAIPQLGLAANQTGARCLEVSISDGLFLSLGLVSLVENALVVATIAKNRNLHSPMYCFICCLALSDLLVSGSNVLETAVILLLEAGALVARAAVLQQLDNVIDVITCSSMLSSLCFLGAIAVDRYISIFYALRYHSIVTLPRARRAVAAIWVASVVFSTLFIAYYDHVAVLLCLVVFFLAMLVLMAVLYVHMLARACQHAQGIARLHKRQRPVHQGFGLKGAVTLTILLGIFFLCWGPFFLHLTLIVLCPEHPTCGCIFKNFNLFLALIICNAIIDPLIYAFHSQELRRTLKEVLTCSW
Procedure, shortened: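 HEK-293 cells stably expressing hMC1R and the GScAMP22F split-luciferase cAMP sensor, preloaded 120 min at 37° C with D-luciferin in serum-free medium. Peptide responses were taken as peak luminescence over 2-13 min minus 2-min baseline, normalized to the α-MSH ECmax. EC50 was obtained from a four-parameter variable-slope fit.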

human MC3R = molecular target: T2, human MC3R (Homo sapiens, UniProt P41968); assay: split-luciferase cAMP sensor assay, agonist mode (measurement window 1), hMC3R; settings: for Emax: % maximal activation, read-out: MC3R cAMP % max activation; for Emax / EC50: agonist mode; for MC4R selectivity vs MC3R: MC4R versus MC3R; for EC50: HEK-293 cells stably expressing hMC3R, read-out: MC3R cAMP EC50
T2 construct: expressed in transfected cells; host or cells: HEK-293 cells stably expressing the GScAMP22F split-luciferase cAMP sensor (parent reporter line from Promega); MC3R clone generated in-house, G418 selection
T2 sequence (P41968 whole entry): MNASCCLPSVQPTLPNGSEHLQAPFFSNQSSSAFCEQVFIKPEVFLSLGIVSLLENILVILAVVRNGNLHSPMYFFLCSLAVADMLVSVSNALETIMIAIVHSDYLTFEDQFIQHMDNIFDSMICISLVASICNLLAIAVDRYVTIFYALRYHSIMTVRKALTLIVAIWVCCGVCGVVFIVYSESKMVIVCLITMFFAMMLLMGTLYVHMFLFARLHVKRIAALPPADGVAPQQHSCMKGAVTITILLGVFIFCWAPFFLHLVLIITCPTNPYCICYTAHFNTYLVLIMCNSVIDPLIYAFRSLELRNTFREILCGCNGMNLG
Procedure, shortened: (§1)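 Live stable cell lines carrying receptor plus GloSensor cAMP22f split-luciferase, loaded with 4% D-luciferin in serum-free medium (~1% serum estimated during assay). Luminescence recorded during in-line peptide addition; direct agonist effect read in window 1, with 20 μM forskolin as normalization reference. EC50 from four-parameter sigmoid fit.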

human MC4R = molecular target: T3, human MC4R (Homo sapiens, UniProt P32245); assay: split-luciferase cAMP sensor assay, agonist mode (measurement window 1), hMC4R; settings: agonist mode; for Emax: % maximal activation, read-out: MC4R cAMP % max activation
T3 construct: host or cells: HEK-293 cells stably expressing the GScAMP22F split-luciferase cAMP sensor and hMC4R, G418 selection
T3 sequence (P32245 whole entry): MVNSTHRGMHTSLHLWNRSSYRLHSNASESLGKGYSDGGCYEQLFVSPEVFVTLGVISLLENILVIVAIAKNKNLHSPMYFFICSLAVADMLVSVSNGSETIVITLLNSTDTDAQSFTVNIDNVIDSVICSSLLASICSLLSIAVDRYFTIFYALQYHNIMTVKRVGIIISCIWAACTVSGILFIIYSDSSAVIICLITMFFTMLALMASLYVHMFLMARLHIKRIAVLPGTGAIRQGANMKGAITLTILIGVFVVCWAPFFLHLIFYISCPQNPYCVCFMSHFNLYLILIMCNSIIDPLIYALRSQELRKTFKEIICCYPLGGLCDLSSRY
Procedure, shortened: as §1

CC(=O)N[C@@H](CCCNC(=N)N)C(=O)N[C@H]1CSSC[C@@H](C(N)=O)NC(=O)[C@H](Cc2c[nH]c3ccccc23)NC(=O)[C@H](CCCNC(=N)N)NC(=O)[C@@H](Cc2ccccc2)NC(=O)[C@H](CCCNC(N)=O)NC(=O)[C@H](C)NC1=O [CTX-1287, Arg-cyclo(Cys-Ala-Cit-D-Phe-Arg-Trp-Cys)] (Ac-RCA[Cit][dF]RWC-NH2; disulfide 2-8 (inferred))
MC4R selectivity vs MC1R (human MC1R): 281
Emax (human MC3R): 43%
MC4R selectivity vs MC3R (human MC3R): 66
Emax (human MC4R): 94%

CC(=O)N[C@@H](CCCNC(=N)N)C(=O)N[C@H]1CSSC[C@@H](C(N)=O)NC(=O)[C@H](Cc2c[nH]c3ccccc23)NC(=O)[C@H](CCCNC(=N)N)NC(=O)[C@@H](Cc2ccccc2)NC(=O)[C@H](Cc2c[nH]cn2)NC(=O)C(C)(C)NC1=O [CTX-1291, Arg-cyclo(Cys-Aib-His-D-Phe-Arg-Trp-Cys)]
MC4R selectivity vs MC1R (human MC1R): 1.31
Emax (human MC3R): 91%
MC4R selectivity vs MC3R (human MC3R): 7.99
Emax (human MC4R): 98%

CC(=O)N[C@@H](CCCNC(=N)N)C(=O)N[C@H]1CSSC[C@@H](C(N)=O)NC(=O)[C@@H](Cc2c[nH]c3ccccc23)NC(=O)[C@H](CCCNC(N)=O)NC(=O)[C@@H](Cc2ccccc2)NC(=O)[C@H](CCCNC(=N)N)NC(=O)[C@@H](C)NC1=O [CTX-1281, Arg-cyclo(Cys-D-Ala-Arg-D-Phe-Cit-D-Trp-Cys)] (Ac-RC[dA]R[dF][Cit][dW]C-NH2; disulfide 2-8 (inferred))
MC4R selectivity vs MC1R (human MC1R): 0.44
Emax (human MC3R): 44%
EC50 (human MC3R): 0.028 µM
MC4R selectivity vs MC3R (human MC3R): 0.29
Emax (human MC4R): 92%

CC1(C)NC(=O)CSC[C@@H](C(N)=O)NC(=O)[C@H](Cc2c[nH]c3ccccc23)NC(=O)[C@H](CCCNC(=N)N)NC(=O)[C@@H](Cc2ccccc2)NC(=O)[C@H](CCCNC(=N)N)NC1=O [CTX-1648, Thioether-cyclo(Aib-Arg-D-Phe-Arg-Trp-Cys)] ({CH2CO}-[Aib]R[dF]RWC-NH2; thioether N-6)
MC4R selectivity vs MC1R (human MC1R): 13
Emax (human MC3R): 91%
EC50 (human MC3R): 0.072 µM
MC4R selectivity vs MC3R (human MC3R): 63
Emax (human MC4R): 101%

CC(=O)N[C@@H](CCCNC(=N)N)C(=O)N[C@H]1CSSC[C@@H](C(N)=O)NC(=O)[C@H](Cc2ccccc2)NC(=O)[C@H](CCCNC(=N)N)NC(=O)[C@@H](Cc2ccccc2)NC(=O)[C@H](CCCN)NC(=O)C(C)(C)NC1=O [CTX-1602, Arg-cyclo(Cys-Aib-Orn-D-Phe-Arg-Phe-Cys)] (Ac-RC[Aib][Orn][dF]RFC-NH2; disulfide 2-8)
MC4R selectivity vs MC1R (human MC1R): 3.65
Emax (human MC3R): 80%
MC4R selectivity vs MC3R (human MC3R): 3.44
Emax (human MC4R): 97%

CC(=O)N[C@H]1CSSC[C@@H](C(N)=O)NC(=O)[C@H](Cc2c[nH]c3ccccc23)NC(=O)[C@H](CCCNC(=N)N)NC(=O)[C@@H](Cc2ccccc2)NC(=O)[C@H](CCCNC(=N)N)NC(=O)[C@@H](C)NC1=O [CTX-1627, cyclo(Cys-D-Ala-Arg-D-Phe-Arg-Trp-Cys)] (Ac-C[dA]R[dF]RWC-NH2; disulfide 1-7 (inferred))
MC4R selectivity vs MC1R (human MC1R): 9.33
Emax (human MC3R): 98%
EC50 (human MC3R): 0.0037 µM
MC4R selectivity vs MC3R (human MC3R): 2.47
Emax (human MC4R): 104%
EC50 (human MC4R; HEK-293 cells stably expressing hMC4R, read-out: MC4R cAMP EC50): 0.0014 µM

CC1(C)NC(=O)CSC[C@@H](C(N)=O)NC(=O)[C@H](Cc2c[nH]c3ccccc23)NC(=O)[C@H](CCCNC(=N)N)NC(=O)[C@@H](Cc2ccccc2)NC(=O)[C@H](CCCNC(N)=O)NC1=O [CTX-1649, Thioether-cyclo(Aib-Cit-D-Phe-Arg-Trp-Cys)] ({CH2CO}-[Aib][Cit][dF]RWC-NH2; thioether N-6)
MC4R selectivity vs MC1R (human MC1R): 1652
Emax (human MC3R): 79%
MC4R selectivity vs MC3R (human MC3R): 72
Emax (human MC4R): 97%
